Data: patent US7547519B2, “Methods of diagnosing multidrug resistant tuberculosis” (The United States of America as represented by the …, priority 2000, dated 2009)
Values after ≈ are worked out from the molar mass of the structure shown.

Tests used:
MTb H37Rv [1] = experiment: microbe, parasite or virus in culture; settings: Mycobacterium tuberculosis
MTb H37Rv [2] = test system: MTb H37Rv
MTb patient isolates = type: cell-based, Mycobacterium tuberculosis

SMILES: CCc1cc(C(N)=S)ccn1 [ETA, ethionamide]
- MIC (MTb H37Rv [1]): 2.5 to 5 µg/mL (≈ 15 to 30.1 µM)
- growth of transformants (MTb H37Rv [2]): grew as a lawn at 2.5 and 5 μg/ml ETA
- isolates cross-resistant (MTb patient isolates): Eleven of fourteen
- susceptibility of isolates without mutations in EtaA, EtaR or promoter regions (MTb patient isolates): fully sensitive

SMILES: CC(C)CCOc1ccc(NC(=S)Nc2ccc(OCCC(C)C)cc2)cc1 [thiocarlide]
- isolates cross-resistant (MTb patient isolates): thirteen out of fourteen
